Results as given in patent publication US20260345619A1 (Principia Biopharma Inc., priority 2023, published 2026).

Test: Pre-bronchodilator FEV1 and percent predicted FEV1 by spirometry, change from baseline
Assay type: in vivo, human
Details: 400 mg BID, Week 12
Procedure: Spirometry is a standard test to measure patients' lung function.
The primary endpoint was the proportion of patients with LOAC. The key secondary endpoint for the study was change in pre-bronchodilator FEV1 from baseline at EOT.
Reversibility is defined as an increase of the absolute FEV1 after administration of bronchodilator and is measured by spirometry as postbronchodilator increase in FEV1 in percent of the prebronchodilator FEV1. After spirometry for measuring prebronchodilator FEV1, participants were to receive 2-4 puffs of albuterol/salbutamol or levalbuterol/levosalbutamol from a primed MDI. The postbronchodilator spirometry may have been repeated several times within 30 minutes after administration of bronchodilator. Alternatively, and only if it was consistent with usual office practice (to be documented), reversibility may have been performed using inhalation of nebulized albuterol/salbutamol or levalbuterol/levosalbutamol.
Secondary endpoints included pre-bronchodilator FEV1 change from baseline at EOT, ACQ-5 score change from baseline, and AQLQ score change from baseline. Other secondary and exploratory endpoints are described in Table 2.

[1] = >2 exacerbations within 2 years
[2] = baseline FEV1 <2.022 L (median)
[3] = baseline FEV1 reversibility <12%
[4] = baseline FEV1 reversibility ≥12%
[5] = baseline FEV1 ≥2.022 L (median)
[6] = baseline IgE <210.8 IU/mL (median)
[7] = baseline IgE ≥210.8 IU/mL (median)
[8] = baseline blood eosinophils <0.15 10^9/L
[9] = baseline blood eosinophils <0.3 10^9/L
[10] = baseline blood eosinophils ≥0.15 10^9/L
[11] = baseline blood eosinophils ≥0.3 10^9/L
[12] = baseline percent predicted FEV1 <68% (median)
[13] = baseline percent predicted FEV1 ≥68% (median)

CC(C)(C=C(C#N)C(=O)N1CCC[C@@H](n2nc(-c3ccc(Oc4ccccc4)cc3F)c3c(N)ncnc32)C1)N1CCN(C2COC2)CC1 (mixture of isomers) [rilzabrutinib, (R)-2-[3-[4-amino-3-(2-fluoro-4-phenoxy-phenyl)pyrazolo[3,4-d]pyrimidin-1-yl]piperidine-1-carbonyl]-4-methyl-4-[4-(oxetan-3-yl)piperazin-1-yl]pent-2-enenitrile]
0.18 L: Pre-bronchodilator FEV1 change from baseline, LS Mean Diff vs. placebo (asthma onset age <12 years)
-0.07 L: Pre-bronchodilator FEV1 change from baseline, LS Mean (Latin America) | Pre-bronchodilator FEV1 change from baseline, LS Mean Diff vs. placebo [9] | Pre-bronchodilator FEV1 change from baseline, LS Mean [13]
-0.01 L: Pre-bronchodilator FEV1 change from baseline, LS Mean (2 exacerbations within 2 years) | Pre-bronchodilator FEV1 change from baseline, LS Mean Diff vs. placebo (Latin America) | Pre-bronchodilator FEV1 change from baseline, LS Mean Diff vs. placebo (baseline FeNO ≥25 ppb) | Pre-bronchodilator FEV1 change from baseline, Mean [10] | Pre-bronchodilator FEV1 change from baseline, LS Mean Diff vs. placebo [13] | Pre-bronchodilator FEV1 change from baseline, Mean (baseline weight ≥60-<90 kg)
0.07 L: Pre-bronchodilator FEV1 change from baseline, LS Mean Diff vs. placebo (asthma onset age ≥40 years) | Pre-bronchodilator FEV1 change from baseline, LS Mean [4] | Pre-bronchodilator FEV1 change from baseline, LS Mean Diff vs. placebo [10] | Pre-bronchodilator FEV1 change from baseline, LS Mean Diff vs. placebo [11]
0.01 L: Pre-bronchodilator FEV1 change from baseline, Mean (baseline FeNO ≥25 ppb) | Pre-bronchodilator FEV1 change from baseline, LS Mean Diff vs. placebo [6] | Pre-bronchodilator FEV1 change from baseline, LS Mean Diff vs. placebo [7]
-0.36 L: Pre-bronchodilator FEV1 change from baseline, LS Mean [1]
0.10 L: Pre-bronchodilator FEV1 change from baseline, LS Mean Diff vs. placebo (2 exacerbations within 2 years) | Pre-bronchodilator FEV1 change from baseline, LS Mean Diff vs. placebo (atopic medical conditions: No)
0.02 L: Pre-bronchodilator FEV1 change from baseline, LS Mean Diff vs. placebo (age ≥45 years) | Pre-bronchodilator FEV1 change from baseline, LS Mean (atopic medical conditions: Yes) | Pre-bronchodilator FEV1 change from baseline, LS Mean Diff vs. placebo (background ICS/LABA dose High) | Pre-bronchodilator FEV1 change from baseline, Mean (baseline BMI <25 kg/m^2) | Pre-bronchodilator FEV1 change from baseline, LS Mean Diff vs. placebo (baseline IgE ≥100 IU/mL)
-0.02 L: Pre-bronchodilator FEV1 change from baseline, Mean [5] | Pre-bronchodilator FEV1 change from baseline, Mean [6] | Pre-bronchodilator FEV1 change from baseline, Mean (baseline IgE ≥100 IU/mL) | Pre-bronchodilator FEV1 change from baseline, LS Mean [7] | Pre-bronchodilator FEV1 change from baseline, Mean [13] | Pre-bronchodilator FEV1 change from baseline, Mean (baseline weight <60 kg)
0.24 L: Pre-bronchodilator FEV1 change from baseline, Mean (Western Countries)
-0.13 L: Pre-bronchodilator FEV1 change from baseline, LS Mean (age <45 years) | Pre-bronchodilator FEV1 change from baseline, LS Mean Diff vs. placebo (age <45 years) | Pre-bronchodilator FEV1 change from baseline, LS Mean Diff vs. placebo (baseline BMI ≥30 kg/m^2)
-0.12 L: Pre-bronchodilator FEV1 change from baseline, LS Mean (baseline ACQ-5 >2) | Pre-bronchodilator FEV1 change from baseline, LS Mean (baseline ACQ-5 ≤2) | Pre-bronchodilator FEV1 change from baseline, Mean (baseline FeNO <25 ppb)
-0.16 L: Pre-bronchodilator FEV1 change from baseline, LS Mean Diff vs. placebo [1] | Pre-bronchodilator FEV1 change from baseline, Mean (atopic medical conditions: No) | Pre-bronchodilator FEV1 change from baseline, LS Mean (baseline FeNO <25 ppb)
0.15 L: Pre-bronchodilator FEV1 change from baseline, LS Mean Diff vs. placebo (baseline BMI <25 kg/m^2)
0.08 L: Pre-bronchodilator FEV1 change from baseline, LS Mean Diff vs. placebo (asthma onset age <18 years) | Pre-bronchodilator FEV1 change from baseline, Mean [4] | Pre-bronchodilator FEV1 change from baseline, Mean (baseline FeNO ≥35 ppb)
0.04 L: Pre-bronchodilator FEV1 change from baseline, Mean (asthma onset age <18 years) | Pre-bronchodilator FEV1 change from baseline, Mean (background ICS/LABA dose Medium) | Pre-bronchodilator FEV1 change from baseline, LS Mean Diff vs. placebo (baseline ACQ-5 ≤2) | Pre-bronchodilator FEV1 change from baseline, LS Mean Diff vs. placebo [2] | Pre-bronchodilator FEV1 change from baseline, Mean [11]
-0.04 L: Pre-bronchodilator FEV1 change from baseline, LS Mean Diff vs. placebo (baseline ACQ-5 >2) | Pre-bronchodilator FEV1 change from baseline, LS Mean (baseline BMI ≥30 kg/m^2) | Pre-bronchodilator FEV1 change from baseline, LS Mean Diff vs. placebo (baseline FeNO <35 ppb) | Pre-bronchodilator FEV1 change from baseline, LS Mean (baseline IgE ≥100 IU/mL) | Pre-bronchodilator FEV1 change from baseline, LS Mean Diff vs. placebo [8]
0.03 L: Pre-bronchodilator FEV1 change from baseline, Mean (atopic medical conditions: Yes) | Pre-bronchodilator FEV1 change from baseline, LS Mean Diff vs. placebo (baseline FeNO <25 ppb) | Pre-bronchodilator FEV1 change from baseline, LS Mean Diff vs. placebo [12] | Pre-bronchodilator FEV1 change from baseline, LS Mean Diff vs. placebo (baseline weight ≥60-<90 kg)
-0.18 L: Pre-bronchodilator FEV1 change from baseline, Mean (baseline BMI ≥30 kg/m^2)
-0.10 L: Pre-bronchodilator FEV1 change from baseline, Mean (baseline FeNO <35 ppb) | Pre-bronchodilator FEV1 change from baseline, Mean [8] | Pre-bronchodilator FEV1 change from baseline, Mean [9]
-0.15 L: Pre-bronchodilator FEV1 change from baseline, Mean [1] | Pre-bronchodilator FEV1 change from baseline, LS Mean (atopic medical conditions: No) | Pre-bronchodilator FEV1 change from baseline, LS Mean [9]
-0.05 L: Pre-bronchodilator FEV1 change from baseline, LS Mean Diff vs. placebo (1 exacerbation within 2 years) | Pre-bronchodilator FEV1 change from baseline, Mean (Latin America) | Pre-bronchodilator FEV1 change from baseline, Mean (age <45 years) | Pre-bronchodilator FEV1 change from baseline, Mean (background ICS/LABA dose High) | Pre-bronchodilator FEV1 change from baseline, LS Mean Diff vs. placebo [4] | Pre-bronchodilator FEV1 change from baseline, Mean [12]
-0.03 L: Pre-bronchodilator FEV1 change from baseline, Mean (age ≥45 years) | Pre-bronchodilator FEV1 change from baseline, LS Mean Diff vs. placebo (asthma onset age ≥18 years) | Pre-bronchodilator FEV1 change from baseline, LS Mean Diff vs. placebo (atopic medical conditions: Yes) | Pre-bronchodilator FEV1 change from baseline, LS Mean Diff vs. placebo [5] | Pre-bronchodilator FEV1 change from baseline, LS Mean Diff vs. placebo (baseline IgE <100 IU/mL) | Pre-bronchodilator FEV1 change from baseline, LS Mean [10]
-0.14 L: Pre-bronchodilator FEV1 change from baseline, LS Mean (age ≥45 years) | Pre-bronchodilator FEV1 change from baseline, LS Mean (asthma onset age ≥18-<40 years)
0.05 L: Pre-bronchodilator FEV1 change from baseline, Mean (1 exacerbation within 2 years) | Pre-bronchodilator FEV1 change from baseline, LS Mean (baseline FeNO ≥35 ppb)
-0.11 L: Pre-bronchodilator FEV1 change from baseline, Mean (asthma onset age ≥18 years) | Pre-bronchodilator FEV1 change from baseline, LS Mean (background ICS/LABA dose High) | Pre-bronchodilator FEV1 change from baseline, LS Mean (baseline IgE <100 IU/mL) | Pre-bronchodilator FEV1 change from baseline, LS Mean [6]
-0.00 L: Pre-bronchodilator FEV1 change from baseline, LS Mean (asthma onset age <18 years) | Pre-bronchodilator FEV1 change from baseline, Mean (baseline BMI ≥25-<30 kg/m^2) | Pre-bronchodilator FEV1 change from baseline, LS Mean Diff vs. placebo [3] | Pre-bronchodilator FEV1 change from baseline, LS Mean (baseline FeNO ≥25 ppb)
-0.09 L: Pre-bronchodilator FEV1 change from baseline, Mean (APAC) | Pre-bronchodilator FEV1 change from baseline, Mean (baseline ACQ-5 >2) | Pre-bronchodilator FEV1 change from baseline, LS Mean (baseline BMI <25 kg/m^2) | Pre-bronchodilator FEV1 change from baseline, LS Mean [5] | Pre-bronchodilator FEV1 change from baseline, Mean (baseline IgE <100 IU/mL) | Pre-bronchodilator FEV1 change from baseline, LS Mean (baseline weight ≥60-<90 kg)
-0.31 L: Pre-bronchodilator FEV1 change from baseline, Mean (asthma onset age ≥40 years)
0.06 L: Pre-bronchodilator FEV1 change from baseline, LS Mean Diff vs. placebo (baseline BMI ≥25-<30 kg/m^2) | Pre-bronchodilator FEV1 change from baseline, LS Mean Diff vs. placebo (baseline FeNO ≥35 ppb)
-0.08 L: Pre-bronchodilator FEV1 change from baseline, LS Mean (1 exacerbation within 2 years) | Pre-bronchodilator FEV1 change from baseline, Mean (asthma onset age ≥18-<40 years) | Pre-bronchodilator FEV1 change from baseline, LS Mean [2] | Pre-bronchodilator FEV1 change from baseline, Mean [7] | Pre-bronchodilator FEV1 change from baseline, LS Mean [8]
0.00 L: Pre-bronchodilator FEV1 change from baseline, Mean (asthma onset age <12 years) | Pre-bronchodilator FEV1 change from baseline, LS Mean Diff vs. placebo (asthma onset age ≥18-<40 years) | Pre-bronchodilator FEV1 change from baseline, LS Mean (asthma onset age ≥40 years) | Pre-bronchodilator FEV1 change from baseline, Mean (baseline ACQ-5 ≤2)
-0.06 L: Pre-bronchodilator FEV1 change from baseline, Mean (2 exacerbations within 2 years) | Pre-bronchodilator FEV1 change from baseline, LS Mean (baseline BMI ≥25-<30 kg/m^2) | Pre-bronchodilator FEV1 change from baseline, Mean [2]
0.12 L: Pre-bronchodilator FEV1 change from baseline, LS Mean (asthma onset age <12 years) | Pre-bronchodilator FEV1 change from baseline, Mean (asthma onset age ≥12-<18 years)
-0.17 L: Pre-bronchodilator FEV1 change from baseline, LS Mean (asthma onset age ≥18 years)
-0.19 L: Pre-bronchodilator FEV1 change from baseline, LS Mean (baseline FeNO <35 ppb)
-0.21 L: Pre-bronchodilator FEV1 change from baseline, Mean (Eastern Europe) | Pre-bronchodilator FEV1 change from baseline, LS Mean [12]
-0.23 L: Pre-bronchodilator FEV1 change from baseline, LS Mean [3]
-0.24 L: Pre-bronchodilator FEV1 change from baseline, Mean [3]
